Laboratory results: patent US20180093956A1, “SUBSTITUTED PHTHALAZINES” (AbbVie Inc., priority 2015, published 2018)
Read-outs that look alike come from different tables or passages of the source.

Legend:
SUV420H1 enzyme = SUV420H1 enzyme (Homo sapiens, UniProt Q4FZB7); experiment: TR-FRET SAH SUV420H1 enzyme inhibition assay; assay type: biochemical; settings: Histone Peptide H4(8-30)me1 and SAM, TR-FRET detection of SAH, read-out: TR-FRET SAH_SUV420H1 IC50
Description: Test compounds were dispensed by a Labcyte Echo in 384-well low volume assay plates with 3-fold serial dilutions from 50 μM to 0.00075 μM. 5 μL of SUV420H1 enzyme (Abbvie) at 90 nM was added to all wells except for the no enzyme control wells and incubated for 30 minutes at room temperature before 5 μL of Histone Peptide H4(8-30)me1 (Anaspec) at 5 μM and SAM at 4 μM was added to all wells. The plates were incubated in a humidified chamber overnight at room temp and then 10 μL of the detection reagent that contained RIPA buffer (50 mM Tris-HCl, pH 8.0, 150 mM sodium chloride, 1.0% Igepal CA-630 (NP-40), 0.5% sodium deoxycholate and 0.1% sodium dodecyl sulfate) (Sigma) with 2 nM of Terbium chelate anti S-adenosyl-L-homocysteine (SAH) (Abbvie) antibody and Oregon Green labeled SAH at 4 nM was added. The plates were further incubated for 4 hours at room temperature. The plates were read in a Perkin Elmer Envision using a TR-FRET protocol with Excitation set at 335 nm and Emission at 520 and 495 nm. To generate dose response curves the data is normalized to percent inhibition by setting the average of the plus and minus enzyme control wells to 0% and 100% inhibition respectively. The ICso values for the compounds are generated by fitting the normalized data with Accelrys Assay Explorer 3.3 to a sigmoidal curve model using […], Y=(100*x^n)/(K^n+x^n), where Y is the measured response, x is the compound concentration, n is the Hill Slope and K is the IC50 and the lower and higher asymptotes are constrained to 0 and 100 respectively.

[1] = tested on: H4K20me3 in PC-3 cells (SUV420H1 cellular activity); experiment: H4K20me3 Cellular PD Assay (high content microscopy); assay type: cell-based; settings: treated for 72 hours, H4K20me3 immunofluorescence, read-out: H4K20me3 Inhibition EC50
Description: A high content microscopy-based PD assay was used to analyze the decrease of H4K20me3 upon inhibition of SUV420H1 cellular activity. PC-3 cells were plated at 3,000 cells per well in black Collagen I coated 96-well plates (Perkin Elmer, #6005810) in RPMI supplemented with 10% heat inactivated FBS, 1% sodium pyruvate and 1% non-essential amino acids in a 37° C. tissue culture incubator. At 24 hours post seeding, cells were treated with the indicated compounds for 72 hours in an 8-point dose response using half log dilutions from […] and then fixed in 2% formaldhyde (Polysciences, Inc., #04018) for 10 minutes at room temperature. Cells were washed in PBS and permeablized in 0.1% Triton X-100 for 10 minutes at room temperature. After blocking in 1% BSA (Sigma, #A7030) in PBS for 1 hour at room temperature, a mouse monoclonal antibody directed toward H4K20me3 (Santa Cruz, #sc-134216) in antibody dilution buffer (0.3% BSA in PBS) was added for 16 hours at 4° C. Cells were then washed 3 times in PBS and an Alexa Fluor 555 conjugated goat anti-mouse (Life Technologies #A-21424) secondary antibody was added for 1 hour at room temperature. Hoechst 33342 diluted 1:10000 (Life Technologies #H3570) was also added during the secondary antibody incubation. Cells were washed 3 times in PBS and stored in PBS at 4° C. Fluorescent images were acquired within 24 hours on a Cell Insight (Thermo Fisher Scientific) using the Target Activation algorithm. Objects were identified via nuclear Hoescht staining, and changes in average mean intensity in the fluorescent signals of H4K20me3 were quantified using the HCS View software platform (Thermo Fisher Scientific).

Chain of SUV420H1 enzyme (Q4FZB7 whole entry): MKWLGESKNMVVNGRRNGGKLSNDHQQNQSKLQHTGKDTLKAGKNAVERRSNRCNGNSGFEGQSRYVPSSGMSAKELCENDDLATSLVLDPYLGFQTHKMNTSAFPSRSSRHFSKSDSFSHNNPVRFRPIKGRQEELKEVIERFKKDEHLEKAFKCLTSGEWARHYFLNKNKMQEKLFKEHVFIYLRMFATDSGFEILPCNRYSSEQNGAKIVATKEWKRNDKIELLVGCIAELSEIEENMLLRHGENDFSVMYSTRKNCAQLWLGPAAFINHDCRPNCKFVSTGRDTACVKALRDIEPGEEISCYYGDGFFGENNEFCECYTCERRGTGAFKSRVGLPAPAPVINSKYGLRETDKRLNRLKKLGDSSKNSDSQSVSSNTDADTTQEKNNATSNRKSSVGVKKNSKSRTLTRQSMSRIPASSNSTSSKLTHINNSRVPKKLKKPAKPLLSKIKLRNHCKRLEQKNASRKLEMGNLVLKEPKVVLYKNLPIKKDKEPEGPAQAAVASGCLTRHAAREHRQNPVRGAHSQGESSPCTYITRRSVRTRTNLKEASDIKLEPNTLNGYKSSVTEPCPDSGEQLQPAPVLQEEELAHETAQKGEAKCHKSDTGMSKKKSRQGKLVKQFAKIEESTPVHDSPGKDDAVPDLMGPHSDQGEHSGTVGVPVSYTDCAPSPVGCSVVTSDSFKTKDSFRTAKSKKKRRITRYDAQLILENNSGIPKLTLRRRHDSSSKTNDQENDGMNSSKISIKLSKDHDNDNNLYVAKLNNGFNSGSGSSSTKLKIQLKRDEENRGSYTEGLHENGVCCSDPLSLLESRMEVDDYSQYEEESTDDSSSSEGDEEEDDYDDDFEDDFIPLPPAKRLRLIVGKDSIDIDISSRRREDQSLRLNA

Row | Compound | IC50 (SUV420H1 enzyme) [nM] | EC50 ([1]; Homo sapiens) [nM] | EC50 [1] [nM]
1 | CN(CCO)c1ccc(-c2nnc(NC3CCCC3)c3cc(Cl)c(Cl)cc23)cn1 [Example 26, 2-{[5-[6,7-dichloro-4-(cyclopentylamino)phthalazin-1-yl]pyridin-2-yl}(methyl)amino]ethanol] | 389 | 4500 | –
2 | Clc1cc2c(NC3CCCC3)nnc(-c3ccnc(N4CCNCC4)c3)c2cc1Cl [Example 18, 6,7-dichloro-N-cyclopentyl-4-[2-(piperazin-1-yl)pyridin-4-yl]phthalazin-1-amine] | 525 | 1050 | –
3 | COC(=O)c1nnc(NC2CCCC2)c2cc(Cl)c(Cl)cc12 [Example 37, methyl 6,7-dichloro-4-(cyclopentylamino)phthalazine-1-carboxylate] | 90.3 | 1120 | –
4 | OCCNc1ccc(-c2nnc(NC3CCCC3)c3cc(Cl)c(Cl)cc23)cn1 [Example 30, 2-({5-[6,7-dichloro-4-(cyclopentylamino)phthalazin-1-yl]pyridin-2-yl}amino)ethanol] | 1050 | 465 | –
5 | CN1CCN(c2nnc(NC3CCCC3)c3cc(Cl)c(Cl)cc23)CC1 [Example 9, 6,7-dichloro-N-cyclopentyl-4-(4-methylpiperazin-1-yl)phthalazin-1-amine] | 373 | 3430 | –
6 | Cn1ccc(-c2nnc(NC3CCCC3)c3cc(Cl)c(Cl)cc23)n1 [Example 4, 6,7-dichloro-N-cyclopentyl-4-(1-methyl-1H-pyrazol-3-yl)phthalazin-1-amine] | 94.2 | 1160 | –
7 | Clc1cc2c(NC3CCCC3)nnc(N3CCCCC3)c2cc1Cl [Example 8, 6,7-dichloro-N-cyclopentyl-4-(piperidin-1-yl)phthalazin-1-amine] | 87.1 | 2920 | –
8 | Fc1ccc(-c2nnc(NC3CCCC3)c3cc(Cl)c(Cl)cc23)cn1 [Example 19, 6,7-dichloro-N-cyclopentyl-4-(6-fluoropyridin-3-yl)phthalazin-1-amine] | 163 | 1210 | –
9 | NC(=O)c1nnc(NC2CCCC2)c2cc(Cl)c(Cl)cc12 [Example 42, 6,7-dichloro-4-(cyclopentylamino)phthalazine-1-carboxamide] | 127 | 2830 | –
10 | Clc1cc2c(Cl)nnc(NC3CCCC3)c2cc1Cl [Example 1, 4,6,7-trichloro-N-cyclopentylphthalazin-1-amine] | 361 | 11400 | –
11 | NC1CCN(c2cc(-c3nnc(NC4CCCC4)c4cc(Cl)c(Cl)cc34)ccn2)C1 (stereo not shown) [Example 40, 4-[2-(3-aminopyrrolidin-1-yl)pyridin-4-yl]-6,7-dichloro-N-cyclopentylphthalazin-1-amine] | 229 | 532 | –
12 | Clc1cc2c(NC3CCCC3)nnc(-c3ccncc3)c2cc1Cl [Example 6, 6,7-dichloro-N-cyclopentyl-4-(pyridin-4-yl)phthalazin-1-amine] | 38.6 | 522 | –
13 | 1-{4-[6,7-dichloro-4-(cyclopentylamino)phthalazin-1-yl]pyridin-2-yl}pyrrolidin-3-ol [Example 36] | 173 | – | 1670
14 | OC1CCN(c2cc(-c3nnc(NC4CCCC4)c4cc(Cl)c(Cl)cc34)ccn2)CC1 [Example 29, 1-{4-[6,7-dichloro-4-(cyclopentylamino)phthalazin-1-yl]pyridin-2-yl}piperidin-4-ol] | 470 | 3080 | –
15 | CN(C)c1ccc(-c2nnc(NC3CCCC3)c3cc(Cl)c(Cl)cc23)cn1 [Example 20, 6,7-dichloro-N-cyclopentyl-4-[6-(dimethylamino)pyridin-3-yl]phthalazin-1-amine] | 415 | 9540 | –
16 | NC1CCN(c2ccc(-c3nnc(NC4CCCC4)c4cc(Cl)c(Cl)cc34)cn2)C1 (stereo not shown) [Example 33, 4-[6-(3-aminopyrrolidin-1-yl)pyridin-3-yl]-6,7-dichloro-N-cyclopentylphthalazin-1-amine] | 1240 | – | –
17 | Clc1cc2c(NC3CCCC3)nnc(-c3ccc(N4CCOCC4)nc3)c2cc1Cl [Example 22, 6,7-dichloro-N-cyclopentyl-4-[6-(morpholin-4-yl)pyridin-3-yl]phthalazin-1-amine] | 1010 | – | –
18 | Clc1cc2c(NC3CCCC3)nnc(N3CCOCC3)c2cc1Cl [Example 10, 6,7-dichloro-N-cyclopentyl-4-(morpholin-4-yl)phthalazin-1-amine] | 48400 | – | –
19 | Clc1cc2c(NC3CCCC3)nnc(-c3ccccc3)c2cc1Cl [Example 2, 6,7-dichloro-N-cyclopentyl-4-phenylphthalazin-1-amine] | 28900 | – | –
20 | O=C(c1nnc(NC2CCCC2)c2cc(Cl)c(Cl)cc12)N1CCCC1 [Example 47, [6,7-dichloro-4-(cyclopentylamino)phthalazin-1-yl](pyrrolidin-1-yl)methanone] | 3780 | – | –
21 | Clc1cc2c(NC3CCCC3)nnc(-c3ccc(CN4CCOCC4)cc3)c2cc1Cl [Example 14, 6,7-dichloro-N-cyclopentyl-4-[4-(morpholin-4-ylmethyl)phenyl]phthalazin-1-amine] | 19100 | – | –

The remaining lines, values ahead:

Row | IC50 (SUV420H1 enzyme) [nM] | EC50 ([1]; Homo sapiens) [nM] | EC50 [1] [nM] | Compound
22 | – | 13100 | – | Cn1cc(C(=O)N2CC=C(c3nnc(NC4CCCC4)c4cc(Cl)c(Cl)cc34)CC2)cn1 [Example 78, {4-[6,7-dichloro-4-(cyclopentylamino)phthalazin-1-yl]-3,6-dihydropyridin-1(2H)-yl}(1-methyl-1H-pyrazol-4-yl)methanone]
23 | 190 | 4990 | – | CN1CCN(C(=O)Cn2cc(-c3nnc(NC4CCCC4)c4cc(Cl)c(Cl)cc34)cn2)CC1 [Example 61, 2-{4-[6,7-dichloro-4-(cyclopentylamino)phthalazin-1-yl]-1H-pyrazol-1-yl}-1-(4-methylpiperazin-1-yl)ethanone]
24 | – | 15600 | – | O=C(C1CC1)N1CC=C(c2nnc(NC3CCCC3)c3cc(Cl)c(Cl)cc23)CC1 [Example 70, cyclopropyl {4-[6,7-dichloro-4-(cyclopentylamino)phthalazin-1-yl]-3,6-dihydropyridin-1(2H)-yl}methanone]
25 | 204 | 10700 | – | CN(CCO)C(=O)Cn1cc(-c2nnc(NC3CCCC3)c3cc(Cl)c(Cl)cc23)cn1 [Example 57, 2-{4-[6,7-dichloro-4-(cyclopentylamino)phthalazin-1-yl]-1H-pyrazol-1-yl}-N-(2-hydroxyethyl)-N-methylacetamide]
26 | 140 | 2490 | – | O=C(NCCO)c1nnc(NC2CCCC2)c2cc(Cl)c(Cl)cc12 [Example 66, 6,7-dichloro-4-(cyclopentylamino)-N-(2-hydroxyethyl)phthalazine-1-carboxamide]
27 | 333 | 10500 | – | CC(=O)N1CCN(C(=O)Cn2cc(-c3nnc(NC4CCCC4)c4cc(Cl)c(Cl)cc34)cn2)CC1 [Example 62, 1-(4-acetylpiperazin-1-yl)-2-{4-[6,7-dichloro-4-(cyclopentylamino)phthalazin-1-yl]-1H-pyrazol-1-yl}ethanone]
28 | 2350 | – | – | O=S(=O)(c1ccccc1)N1CC=C(c2nnc(NC3CCCC3)c3cc(Cl)c(Cl)cc23)CC1 [Example 69, 6,7-dichloro-N-cyclopentyl-4-[1-(phenylsulfonyl)-1,2,3,6-tetrahydropyridin-4-yl]phthalazin-1-amine]
29 | 6090 | – | – | CN1CCN(C(=O)c2nnc(NC3CCCC3)c3cc(Cl)c(Cl)cc23)CC1 [Example 49, [6,7-dichloro-4-(cyclopentylamino)phthalazin-1-yl](4-methylpiperazin-1-yl)methanone]
30 | 12800 | – | – | O=C(c1nnc(NC2CCCC2)c2cc(Cl)c(Cl)cc12)N1CCC(O)CC1 [Example 52, [6,7-dichloro-4-(cyclopentylamino)phthalazin-1-yl](4-hydroxypiperidin-1-yl)methanone]
